Patent EP0973746B1, “SUBSTITUTED 3-CYANO QUINOLINES” (Wyeth Holdings Corporation, priority 1997, dated 1998)
≈ marks a conversion by molar mass, not a printed value. Like-named read-outs stand apart in the source and are kept apart here.

What was measured:
T47D = assay: Inhibition of cancer cell growth as measured by cell number, T47D; assay type: cell-based; settings: Homo sapiens, 48 h, read-out: IC50 T47D
SKBR3 = assay: Inhibition of cancer cell growth as measured by cell number, SKBR3; assay type: cell-based, human; settings: Homo sapiens, SK-BR-3, 48 h;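 also: SK-BR-3 cells were selected as a line overexpressing HER2/neu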
Excerpt: (§1) The cell lines were chosen since they overexpressed epidermal growth factor receptor (EGFR) (i.e. A431) or HER2/neu (SKBR3), or had little to no expression of the these receptors (SW620, LOX, MCF7).

MCF7 = assay: Inhibition of cancer cell growth as measured by cell number, MCF7; assay type: cell-based, human; settings: Homo sapiens, MCF7, 48 h, read-out: IC50 MCF7, cell number, Sulforhodamine B, 48 hours exposure; Table 5;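 also: MCF7 was included as a line with little or no EGFR or HER2/neu expression, in contrast to the receptor-overexpressing lines of the panel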
Excerpt: as §1

B7474 = assay: Inhibition of cancer cell growth as measured by cell number, B7474; assay type: cell-based; settings: Homo sapiens, 48 h, read-out: IC50 B7474
LS174T = assay: Inhibition of cancer cell growth as measured by cell number, LS174T; assay type: cell-based; settings: Homo sapiens, 48 h, read-out: IC50 LS174T
NEC = assay: Inhibition of cancer cell growth as measured by cell number, NEC; assay type: cell-based; settings: Homo sapiens, 48 h, read-out: IC50 NEC
SW620 = assay: Inhibition of cancer cell growth as measured by cell number, SW620; assay type: cell-based, human; settings: Homo sapiens, SW-620, 48 h;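 also: SW620 was included as a cell line with little or no EGFR or HER2/neu expression, in contrast to receptor-overexpressing lines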
Excerpt: as §1

CCRF-CFM = assay: Inhibition of cancer cell growth as measured by cell number, CCRF-CFM; assay type: cell-based; settings: Homo sapiens, 48 h, read-out: IC50 CCRF-CFM
[1] = target: epidermal growth factor receptor kinase (Homo sapiens, UniProt P00533); assay: biochemical
Sequence of epidermal growth factor receptor kinase (P00533 25-1210): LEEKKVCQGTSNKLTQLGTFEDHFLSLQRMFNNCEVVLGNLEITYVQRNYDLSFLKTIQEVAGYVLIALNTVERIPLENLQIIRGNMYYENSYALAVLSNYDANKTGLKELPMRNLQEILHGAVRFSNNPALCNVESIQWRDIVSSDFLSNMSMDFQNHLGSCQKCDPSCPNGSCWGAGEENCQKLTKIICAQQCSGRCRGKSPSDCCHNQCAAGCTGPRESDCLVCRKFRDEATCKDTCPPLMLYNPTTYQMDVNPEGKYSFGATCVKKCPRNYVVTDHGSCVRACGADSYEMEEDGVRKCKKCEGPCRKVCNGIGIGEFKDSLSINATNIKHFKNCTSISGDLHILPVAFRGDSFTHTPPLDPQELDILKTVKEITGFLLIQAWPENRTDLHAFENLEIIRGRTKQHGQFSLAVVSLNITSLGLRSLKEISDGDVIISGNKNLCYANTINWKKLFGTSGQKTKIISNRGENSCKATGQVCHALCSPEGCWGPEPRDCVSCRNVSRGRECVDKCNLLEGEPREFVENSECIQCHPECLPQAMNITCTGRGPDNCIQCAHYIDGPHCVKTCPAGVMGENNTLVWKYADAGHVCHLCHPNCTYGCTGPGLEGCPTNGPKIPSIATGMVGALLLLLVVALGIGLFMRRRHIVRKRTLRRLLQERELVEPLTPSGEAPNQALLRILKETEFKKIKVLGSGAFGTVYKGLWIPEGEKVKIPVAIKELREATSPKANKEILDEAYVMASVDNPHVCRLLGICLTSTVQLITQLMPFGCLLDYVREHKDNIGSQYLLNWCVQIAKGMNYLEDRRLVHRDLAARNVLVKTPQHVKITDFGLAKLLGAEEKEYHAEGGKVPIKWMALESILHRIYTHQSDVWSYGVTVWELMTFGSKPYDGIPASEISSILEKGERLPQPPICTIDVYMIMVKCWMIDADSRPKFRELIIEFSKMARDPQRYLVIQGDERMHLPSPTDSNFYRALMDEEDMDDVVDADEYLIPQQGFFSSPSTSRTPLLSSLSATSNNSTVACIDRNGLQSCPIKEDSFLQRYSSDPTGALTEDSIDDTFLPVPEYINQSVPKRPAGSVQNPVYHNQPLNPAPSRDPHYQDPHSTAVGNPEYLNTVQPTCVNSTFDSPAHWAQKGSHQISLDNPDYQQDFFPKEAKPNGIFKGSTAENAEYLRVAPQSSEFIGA
Description: The enzyme was obtained as a membrane extract of A431 cells (American Type Culture Collection, Rockville, MD). A431 cells were grown in T175 flasks to 80% confluency. The cells were washed twice with phosphate buffered saline (PBS) without Ca^2+. Flasks were rotated for 1.5 hours in 20 ml PBS with 1.0 mM ethylenediaminetetraacetic acid (EDTA) at room temperature and centrifuged at 600g for 10 minutes. The cells were solubilized in 1 ml per 5 x 10^6 cells of cold lysis buffer {10mM 4-(2-hydroxyethyl)-1-piperazineethane-sulfonic acid (HEPES), pH 7.6, 10 mM NaCl, 2mM EDTA, 1mM phenylmethyl-sulfonyl-fluoride (PMSF), 10 mg/ml aprotinin, 10 mg/ml leupeptin, 0.1 mM sodium orthovanadate} in a Dounce homogenizer with 10 strokes on ice. The lysate was centrifuged at 600g for 10 minutes first to clear cell debris and the supernatant further centrifuged at 100,000 g for 30 min at 4°C. The membrane pellet was suspended in 1.5 ml HNG buffer (50 mM HEPES, pH 7.6, 125 mM NaCl, 10% glycerol). The membrane extract was divided into aliquots, immediately frozen in liquid nitrogen and stored at -70°C.
Compounds to be evaluated were made into 10 mg/ml stock solutions in 100% dimethylsulfoxide (DMSO). Prior to experiment, stock solutions were diluted to 500 mM with buffer (30 mM Hepes pH 7.4) and then serially diluted to the desired concentration.
An aliquot of the A431 membrane extract (10 mg/ml) was diluted in 30 mM HEPES (pH 7.4) to give a protein concentration of 50 ug/ml. […] To this was added the ^33p-ATP (10 mCi/ml) diluted 1:10 in assay buffer along with the substrate peptide at a concentration of 0.5 mM (control reactions get no test compound) and the reaction was allowed to proceed for 30 min at 30°C. The reaction was stopped with 10% TCA and left on ice for at least 10 min after which tubes were microcentrifuged at full speed for 15 min. The a portion of the supernatants were spotted on P81 phosphocellulose discs and washed twice in 1% acetic acid then water for 5 min each followed by scintillation counting. […] The % inhibition of the test compound was determined for at least three different concentrations and the IC50 value was evaluated from the dose response curve. […] CPM(control) is in units of counts per minute and was a number expressing the amount of radiolabeled ATP (g-^33P) incorporated into the RR-SRC peptide substrate by the enzyme after 30 minutes at 30°C in the absence of test compound as measured by liquid scintillation counting. The CPM values were corrected for the background counts produced by ATP in the absence of the enzymatic reaction. The IC50 values reported in TABLE 1 are averages of the number of tests conducted.

[2] = target: Epithelial Cell Kinase (ECK) (Homo sapiens, UniProt P29317); assay: biochemical
Sequence of Epithelial Cell Kinase (ECK) (P29317 24-976, species assumed): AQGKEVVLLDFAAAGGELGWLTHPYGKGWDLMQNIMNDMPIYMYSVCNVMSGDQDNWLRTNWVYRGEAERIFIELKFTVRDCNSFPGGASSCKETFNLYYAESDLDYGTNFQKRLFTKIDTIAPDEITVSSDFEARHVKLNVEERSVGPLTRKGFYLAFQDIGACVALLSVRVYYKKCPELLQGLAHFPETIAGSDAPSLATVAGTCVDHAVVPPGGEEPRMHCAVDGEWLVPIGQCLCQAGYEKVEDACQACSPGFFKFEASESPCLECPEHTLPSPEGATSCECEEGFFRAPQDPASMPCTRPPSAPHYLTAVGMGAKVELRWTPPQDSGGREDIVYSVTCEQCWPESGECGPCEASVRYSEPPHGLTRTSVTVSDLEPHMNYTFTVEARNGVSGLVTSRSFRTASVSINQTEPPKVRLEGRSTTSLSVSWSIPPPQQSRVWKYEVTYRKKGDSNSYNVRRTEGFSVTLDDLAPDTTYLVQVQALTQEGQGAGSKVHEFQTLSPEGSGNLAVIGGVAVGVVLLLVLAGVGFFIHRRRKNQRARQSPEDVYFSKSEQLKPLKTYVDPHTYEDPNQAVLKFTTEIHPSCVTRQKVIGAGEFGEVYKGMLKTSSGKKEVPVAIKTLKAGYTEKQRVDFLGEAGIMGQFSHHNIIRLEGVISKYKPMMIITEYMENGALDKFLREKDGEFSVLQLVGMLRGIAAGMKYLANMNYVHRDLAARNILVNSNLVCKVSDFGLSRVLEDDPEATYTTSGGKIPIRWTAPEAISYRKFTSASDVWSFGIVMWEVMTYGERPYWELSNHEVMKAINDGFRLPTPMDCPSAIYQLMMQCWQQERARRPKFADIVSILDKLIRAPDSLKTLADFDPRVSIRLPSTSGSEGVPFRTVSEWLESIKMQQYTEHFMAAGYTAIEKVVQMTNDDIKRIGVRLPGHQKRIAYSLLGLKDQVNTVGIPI
Description: In this standard pharmacological test procedure, a biotinylated peptide substrate is first immobilized on neutravidin-coated microtiter plates. The test drug, the Epithelial Cell Kinase (ECK), Mg^++, sodium vanadate (a protein tyrosine phosphatase inhibitor), and an appropriate buffer to maintain pH (7.2) are then added to the immobilized substrate-containing microtiter wells. ATP is then added to initiate phosphorylation. After incubation, the assay plates are washed with a suitable buffer leaving behind phosphorylated peptide which is exposed to horse radish peroxidase (HRP)-conjugated anti-phosphotyrosine monoclonal antibody. The antibody-treated plates are washed again and the HRP activity in individual wells is quantified as a reflection of degree of substrate phosphorylation.

[3] = target: recombinant human MEK 1 (MAPKK) and recombinant human ERK2 (MAPK); assay: Mitogen Activated Protein Kinase (MAPK) assay, two component coupled MEK 1 / ERK2; assay type: biochemical; settings: separate entries for the same compound = evaluated more than one time;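 also: MEK 1-activated ERK2 phosphorylates MBP or Myc peptide with 33P-ATP, filter capture and scintillation counting, inhibitor preincubated with ERK2 30 min at 0 °C, inhibition relative to uninhibited control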
[4] = target: T1, Kinase insert Domain containing Receptor (KDR: the catalytic domain of the VEGF receptor) (Homo sapiens, UniProt P35968); assay: Inhibition of Kinase insert Domain containing Receptor (KDR); assay type: biochemical; settings: pH 7.2; radioactive format; read-out: KDR IC50 (converted);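 also: KDR phosphorylating a Glu:Tyr 4:1 copolymer with P32- or P33-labelled ATP, Mg++ and vanadate, read as acid-insoluble radiolabel, compared with compound-free reaction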
T1 construct: KDR: the catalytic domain of the VEGF receptor
T1 sequence (P35968 834-1162 limits assumed): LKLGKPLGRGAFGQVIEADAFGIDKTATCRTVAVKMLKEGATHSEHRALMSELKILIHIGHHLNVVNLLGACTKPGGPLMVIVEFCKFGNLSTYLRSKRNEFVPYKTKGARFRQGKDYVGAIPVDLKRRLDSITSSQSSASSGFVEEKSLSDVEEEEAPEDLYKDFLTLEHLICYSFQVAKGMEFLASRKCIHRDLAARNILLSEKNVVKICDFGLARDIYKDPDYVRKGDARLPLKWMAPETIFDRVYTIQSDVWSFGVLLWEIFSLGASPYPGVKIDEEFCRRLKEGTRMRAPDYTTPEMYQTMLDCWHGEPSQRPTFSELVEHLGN

[5] = target: T2, His-tagged cytoplasmic domain of EGFR (Homo sapiens, UniProt P00533); assay: Inhibition of Epidermal Growth Factor Receptor Kinase (EGF-R) using recombinant enzyme; assay type: biochemical; settings: recombinant enzyme; RR-SRC peptide; average of the number of tests; read-out: IC50;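 also: radiometric kinase assay measuring radiolabeled phosphate transfer from ATP onto the peptide tyrosine by scintillation counting, control is reaction without compound, background subtracted, IC50 from dose-response curve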
T2 construct: containing the EGFR cDNA encoding amino acids 645 - 1186 preceded by Met-Ala-(His)6; made in house; host or cells: Sf9 cells, recombinant baculovirus vHcEGFR52
T2 sequence (P00533 669-1210): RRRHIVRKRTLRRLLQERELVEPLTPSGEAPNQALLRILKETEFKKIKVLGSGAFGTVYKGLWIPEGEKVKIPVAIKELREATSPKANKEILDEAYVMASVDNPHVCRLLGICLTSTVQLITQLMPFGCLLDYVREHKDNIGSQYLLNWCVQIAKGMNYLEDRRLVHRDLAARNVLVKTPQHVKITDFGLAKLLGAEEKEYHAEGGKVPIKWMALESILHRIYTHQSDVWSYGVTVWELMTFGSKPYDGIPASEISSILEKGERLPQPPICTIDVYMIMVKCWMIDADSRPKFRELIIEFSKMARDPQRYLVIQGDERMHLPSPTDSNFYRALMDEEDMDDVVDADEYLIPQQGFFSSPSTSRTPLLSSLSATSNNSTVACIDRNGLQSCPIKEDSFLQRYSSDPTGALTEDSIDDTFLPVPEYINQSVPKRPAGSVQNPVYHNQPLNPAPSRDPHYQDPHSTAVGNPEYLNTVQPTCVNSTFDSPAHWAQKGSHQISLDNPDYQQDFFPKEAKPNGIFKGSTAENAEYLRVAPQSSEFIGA

A431 = assay: Inhibition of cancer cell growth as measured by cell number, A431; assay type: cell-based, human; settings: Homo sapiens, A-431, 48 h, read-out: IC50 A431;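 also: human A431 line, picked because it overexpresses epidermal growth factor receptor (EGFR)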
Excerpt: as §1

LOX = assay: Inhibition of cancer cell growth as measured by cell number, LOX; assay type: cell-based, human; settings: Homo sapiens, LOX, 48 h, read-out: IC50 LOX;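 also: LOX cells served as a line with low or absent EGFR and HER2/neu expression, in contrast to receptor-overexpressing lines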
Excerpt: as §1

| SMILES | IC50 [2] [nM] | IC50 [3] [nM] | IC50 [4] [nM] | also measured |
| --- | --- | --- | --- | --- |
| COc1cc2ncc(C#N)c(Nc3cccc(C(F)(F)F)c3)c2cc1OC [Example 42, 4-[(3-Trifluoromethylphenyl)amino]-6,7-dimethoxy-3-quinolinecarbonitrile] | – | – | – | IC50 (T47D): 6.78 µg/mL (≈ 18.2 µM); IC50 (SKBR3; read-out: IC50 SKBR3, cell number, Sulforhodamine B, 48 hours exposure, Table 7): 12.5 µg/mL (≈ 33.6 µM); IC50 (MCF7): 6.14 µg/mL (≈ 16.5 µM); IC50 (B7474): 6.78 µg/mL (≈ 18.2 µM); IC50 (LS174T): 5.97 µg/mL (≈ 16 µM); IC50 (NEC): 6.47 µg/mL (≈ 17.3 µM); IC50 (SW620; read-out: IC50 SW620, cell number, Sulforhodamine B, 48 hours exposure, Table 4): 31.2 µg/mL (≈ 83.5 µM); IC50 (CCRF-CFM): 5.23 µg/mL (≈ 14 µM) |
| N#Cc1cnc2ccc(NC(=O)/C=C/Cl)cc2c1Nc1cccc(Br)c1 [Example 51, N-[4-[(3-Bromophenyl)amino]-3-cyano-6-quinolinyl]-3(E)-chloro-2-propenamide] | – | – | – | IC50 [1]: 0.05 nM |
| N#Cc1cnc2ccc(NC(=O)/C=C\Cl)cc2c1Nc1cccc(Br)c1 [Example 52, N-[4-[(3-Bromophenyl)amino]-3-cyano-6-quinolinyl]-3(Z)-chloro-2-propenamide] | – | – | – | IC50 [1]: 10 nM |
| C=C(C)C(=O)Nc1ccc2ncc(C#N)c(Nc3cccc(Br)c3)c2c1 [Example 53, N-[4-[(3-Bromophenyl)amino]-3-cyano-6-quinolinyl]-2-methyl-2-propenamide] | – | – | – | IC50 [1]: 7 nM |
| C=CC(=O)Nc1ccc2ncc(C#N)c(Nc3ccc(Br)c(Br)c3)c2c1 [Example 54, N-[4-[(3,4-Dibromophenyl)amino]-3-cyano-6-quinolinyl]-2-propenamide] | – | – | – | IC50 [1]: 7 nM |
| N#Cc1cnc2ccc(NC(=O)C#CCO)cc2c1Nc1cccc(Br)c1 [Example 57, N-[4-[(3-Bromophenyl)amino]-3-cyano-6-quinolinyl]-4-hydroxy-2-butynamide] | – | – | – | IC50 [1]: 8 nM |
| N#Cc1cnc2ccc(NC(=O)C#CCN3CCOCC3)cc2c1Nc1cccc(Br)c1 [Example 58, N-[4-[(3-Bromophenyl)amino]-3-cyano-6-quinoliny]-4-morpholino-2-butynamide] | – | – | – | IC50 [1]: 2 nM |
| CN(C)CC#CC(=O)Nc1ccc2ncc(C#N)c(Nc3cccc(Br)c3)c2c1 [Example 59, N-[4-[(3-Bromophenyl)amino]-3-cyano-6-quinolinyl]-4-dimethylamino-2-butynamide] | – | – | – | IC50 [1]: 0.1 nM |
| COc1cc2c(Nc3ccc(Cl)cc3F)c(C#N)cnc2cc1OCCCCl [Example 76, 4-(4-Chloro-2-fluoro-phenylamino)-7-(3-chloro-propoxy)-6-methoxy-quinoline-3-carbonitrile] | 466 | < 1000 | 1670 | – |
| COc1cc2c(Nc3ccc(C)c(O)c3)c(C#N)cnc2cc1OCCN(C)C [Example 82, 7-(2-Dimethylamino-ethoxy)-4-(3-hydroxy-4-methylphenylamino)-6-methoxy-quinoline-3-carbonitrile] | 51000 | 5500 | 7640 | – |
| COc1cc2c(Nc3cc(O)c(Cl)cc3F)c(C#N)cnc2cc1OCCCN(C)C [Example 84, 4-(4-Chloro-2-fluoro-5-hydroxy-phenylamino)-7-(3-dimethylaminopropoxy)-6-methoxy-quinoline-3-carbonitrile] | 449 | < 1000 | 674 | – |
| COc1cc2c(Nc3cc(O)c(Cl)cc3F)c(C#N)cnc2cc1OCCCN1CCOCC1 [Example 85, 4-(4-Chloro-2-fluoro-5-hydroxy-phenylamino)-6-methoxy-7-(3-morpholin-4-yl-propoxy)-quinoline-3-carbonitrile] | 41.1 | – | 616 | – |
| C=CC(=O)Nc1ccc2ncc(C#N)c(Nc3cccc(I)c3)c2c1 [Example 129] | 22700 | 60000 | – | IC50 [5]: 40 nM |
| CN(C)CC=CC(=O)Nc1ccc2ncc(C#N)c(Nc3ccc(F)c(Cl)c3)c2c1 [Example 145] | > 47200 | 35000 | > 70800 | IC50 [5]: 60 nM; IC50 (SKBR3; read-out: IC50 SKBR3): 0.03 µg/mL (≈ 0.0708 µM); IC50 (SW620; read-out: IC50 SW620): 0.4 µg/mL (≈ 0.944 µM); IC50 (A431): 0.03 µg/mL (≈ 0.0708 µM) |
| N#Cc1cnc2ccc(NC(=O)C#CCN3CCCCC3)cc2c1Nc1cccc(Br)c1 [Example 169, N-{4-[(3-Bromophenyl)amino]-3-cyano-6-quinolinyl}-4-piperidino-2-butynamide] | 40900 | > 100000 | – | IC50 [5]: 5 nM; IC50 (SKBR3; read-out: IC50 SKBR3): 0.02 µg/mL (≈ 0.041 µM); IC50 (SW620; read-out: IC50 SW620): 0.1 µg/mL (≈ 0.205 µM); IC50 (A431): 0.01 µg/mL (≈ 0.0205 µM) |
| CCOc1cc2ncc(C#N)c(Nc3cccc(Br)c3)c2cc1OC [Example 176, 4-[(3-Bromophenyl)amino]-7-ethoxy-6-methoxy-3-quinolinecarbonitrile] | 10 | > 100000 | 7530 | – |
| CCOc1cc2ncc(C#N)c(Nc3ccc(C)c(O)c3)c2cc1OC [Example 177, 7-Ethoxy-4-[(3-hydroxy-4-methylphenyl)amino]-6-methoxy-3-quinolinecarbonitrile] | 5.7 | 40000 | 143 | – |
| CCN(CC)CC#CC(=O)Nc1ccc2ncc(C#N)c(Nc3cccc(Br)c3)c2c1 [Example 187, N-[4-[(3-Bromophenyl)amino]-3-cyano-6-quinolinyl]-4-diethylamino-2-butynamide] | > 42000 | > 100000 | – | IC50 [5]: 0.7 nM; IC50 (SKBR3; read-out: IC50 SKBR3): 0.06 µg/mL (≈ 0.126 µM); IC50 (SW620; read-out: IC50 SW620): 0.05 µg/mL (≈ 0.105 µM); IC50 (A431): 0.06 µg/mL (≈ 0.126 µM); IC50 (LOX): 0.07 µg/mL (≈ 0.147 µM) |
| CC(C)N(CC#CC(=O)Nc1ccc2ncc(C#N)c(Nc3cccc(Br)c3)c2c1)C(C)C [Example 192, N-[4-[(3-Bromophenyl)amino]-3-cyano-6-quinolinyl]-4-diisopropylamino-2-butynamide] | 39600 | > 100000 | – | IC50 [5]: 0.6 nM; IC50 (SKBR3; read-out: IC50 SKBR3): 0.03 µg/mL (≈ 0.0595 µM); IC50 (SW620; read-out: IC50 SW620): 0.1 µg/mL (≈ 0.198 µM); IC50 (A431): 0.05 µg/mL (≈ 0.0991 µM) |
| CN(C)CC#CC(=O)Nc1ccc2ncc(C#N)c(Nc3ccc(F)c(Cl)c3)c2c1 [Example 193, N-[4-[(3-Chloro-4-fluorophenyl)amino]-3-cyano-6-quinolinyl]-4-dimethylamino-2-butynamide] | 47400 | 50000 | – | IC50 [5]: 1.9 nM; IC50 (SKBR3; read-out: IC50 SKBR3): 0.003 µg/mL (≈ 0.00711 µM); IC50 (SW620; read-out: IC50 SW620): 0.1 µg/mL (≈ 0.237 µM); IC50 (A431): 0.01 µg/mL (≈ 0.0237 µM) |
| COc1cc2c(Nc3cccc(Br)c3)c(C#N)cnc2c(OC)c1OC [Example 241, 4-(3-Bromo-phenylamino)-6,7,8-trimethoxy-quinoline-3-carbonitrile] | 7240 | > 100000 | > 72400 | – |
| COc1cc2c(Nc3cc(O)c(Cl)cc3F)c(C#N)cnc2c(OC)c1OC [Example 244, 4-(4-Chloro-2-fluoro-5-hydroxy-phenylamino)-6,7,8-trimethoxy-quinoline-3-carbonitrile] | 24800 | > 100000 | > 74300 | – |
| COc1cc2ncc(C#N)c(Nc3c(C)cccc3O)c2cc1OC [Example 246, 4-(2-Hydroxy-6-methyl-phenylamino)-6,7-dimethoxy-quinoline-3-carbonitrile] | 6 | 35000 | > 29800 | – |
| COc1ccc2c(Nc3ccc(C)c(O)c3)c(C#N)cnc2c1 [Example 281, 4-(3-hydroxy-4-methyl-phenylamino)-7-methoxy-quinoline-3-carbonitrile] | 3.3 | 2500 | 9830 | – |
| COc1ccc2c(Nc3cc(O)c(Cl)cc3F)c(C#N)cnc2c1 [Example 282, 4-(4-Chloro-2-fluoro-5-hydroxy-phenylamino)-7-methoxy-quinoline-3-carbonitrile] | 2.9 | > 100000 | 5820 | – |
| COc1cc2ncc(C#N)c(Nc3ccc(O)cc3C)c2cc1OC [Example 292, 4-(4-Hydroxy-2-methyl-phenylamino)-6,7-dimethoxy-quinoline-3-carbonitrile] | 1.8 | > 100000 | 29800 | – |
| COc1cc2ncc(C#N)c(Nc3cccc(SC)c3)c2cc1OC [Example 294, 6,7-Dimethoxy-4-(3-methylsulfanyl-phenylamino)-quinoline-3-carbonitrile] | 2 | 9000 | 17100 | – |
| COc1cc2ncc(C#N)c(Nc3cc(O)c(Cl)cc3F)c2cc1OC [Example 319, 4-(4-Chloro-2-fluoro-5-hydroxy-phenylamino)-6,7-dimethoxy-quinoline-3-carbonitrile] | 1 | < 1000 | 1340 | – |
